Source: US20170000784A1, “Autophagy Inhibitors” (priority 2013, published 2017)
Like-named read-outs stand apart in the source and are kept apart here.

How the values were obtained:
[1] = system: endogenous LC3 in U2OS cells; assay: Western blot of endogenous LC3 (LC3-II accumulation) in U2OS; format: cell-based; conditions: dose response, three hours, FIG. 11A
Procedure: For Western blotting, U2OS cells were seeded in 10 cm plates in 5A McCoy's with 10% FBS at 1×10^6 cells per plate. […] After treatment, cells were lysed [10 mM KPO4, 1 mM EDTA, 10 mM MgCl2, 5 mM EGTA, 50 mM bis-glycerophosphate, 0.5% NP40, 0.1% Brij35, 0.1% sodium deoxycholate, 1 mM NaVO4, 5 mM NaF, 2 mM DTT, and complete protease inhibitors (Sigma, P8340-5 mL)] and 50 μg of protein was resolved by SDS-PAGE. […] Proteins were detected with enhanced chemiluminescence or using the Odyssey machine and quantified (FIGS. 12, 15, 16, 7 and 11).

[2] = system: phospho-ERK1/2 and LC3-II in A375 cells; assay: Western blot of A375 cells treated with PLX-4032 with and without autophagy inhibitors; format: cell-based, human; conditions: in combination with PLX-4032, FIG. 16C
Procedure: For Western blotting, U2OS cells were seeded in 10 cm plates in 5A McCoy's with 10% FBS at 1×10^6 cells per plate. All melanoma lines were seeded in 10 cm plates in RPMI 1640 with 10% FBS at 1×10^6 cells per plate. After 24 hours, cells were treated with CQ, QN, Example 27, or Example 7 in a dose response of 0.3 μM, 1 μM, 3 μM, 10 μM, and 30 μM for three hours. A375 were treated with PLX-4032 (Selleck Chemicals, S1267) at 10 nM, 100 nM, and 1 μM for three hours with and without CQ, QN, Example 7, and Example 27 at 3 μM and 30 μM. After treatment, cells were lysed [10 mM KPO4, 1 mM EDTA, 10 mM MgCl2, 5 mM EGTA, 50 mM bis-glycerophosphate, 0.5% NP40, 0.1% Brij35, 0.1% sodium deoxycholate, 1 mM NaVO4, 5 mM NaF, 2 mM DTT, and complete protease inhibitors (Sigma, P8340-5 mL)] and 50 μg of protein was resolved by SDS-PAGE. Proteins were transferred to PVDF membranes and probed with primary antibodies [LC3 (Sigma, L7543-200UL), anti-α-tubulin (Sigma, T6199), cathepsin B (Santa Cruz, sc-13985)] for 16 hours at 4° C. followed by a secondary antibody [HRP-linked rabbit or mouse IgG (GE Healthcare, NA934 or NA931) or Odyssey IRDye 680CW Goat anti-rabbit IgG (LI-COR, 926-32221) or IRDye 800CW Goat anti-mouse IgG (LI-COR, 926-32210)] for 1 hour at room temperature. Proteins were detected with enhanced chemiluminescence or using the Odyssey machine and quantified (FIGS. 12, 15, 16, 7 and 11).
Since the melanoma cell lines are capable of undergoing autophagy and sensitive to autophagy inhibition, the inventors questioned whether autophagy inhibitors could improve the efficacy of, or sensitize melanoma cells against cytotoxic and chemotherapeutic drugs for advanced metastatic melanoma. In one example, PLX-4032 drug “vemurafenib” (marketed as ZELBORAF®) is a B-Raf enzyme inhibitor developed by Plexxikon and Genentech for the treatment of late-stage melanoma. The name “vemurafenib” comes from V600E mutated BRAF inhibition. PLX-4032, selectively targets the V600E mutant BRAF and it is unknown how this drug may affect autophagic flux. To determine the effects of the drug on autophagic flux, the present inventors performed experiments to determine whether PLX-4032 induces autophagy, as has been observed with other targeted agents. In some embodiments, the accumulation of LC3-II in response to lysosome inhibition was measured by quantitative Western blotting, as described above. A375 cells were treated with PLX-4032 (10 nM, 100 nM, and 1 μM) for three hours in the presence or absence of CQ.

[3] = system: P. falciparum NF54 (CQ sensitive); assay: In vitro P. falciparum asexual blood stage, [3H]-hypoxanthine, NF54; format: cell-based, Plasmodium falciparum; conditions: for antimalarial activity score: NF54 strain; for IC50: Plasmodium falciparum, NF54, Erythrocyte, read-out: Antimalarial activity (IC50) P. falciparum NF54 (CQ sensitive)
Procedure: In this example, compounds of Formula A, Formula A^1, Formula A^2, Formula A^3 or pharmaceutically acceptable salts thereof, are tested in Plasmodium sp infected cells to determine the effectiveness of these compounds to determine their anti-malarial activity. Exemplary compounds, Example 7 and Example 27 (See Table 1) were dissolved in DMSO at 10 mg/mL and 4× compound dilutions were prepared in screening medium [RPMI 1640 with no hypoxanthine, HEPES (5.94 μg/L), NaHCO3 (2.1 μg/L), Neomycin (100 μg/mL), and Albumax II (5 μg/L)]. Human red blood cells were prepared without and with stock cultures of P. falciparum strains, NF54 (Chloroquinine (CQ) sensitive) and K1 (CQ resistant), to a parasitemia of 0.3% and hematocrit of 2.5%. Using a 96-well plate, 100 μL/well of red blood solution was added along with a 2-fold serial dilution of Example 7 and Example 27. Plates were incubated at 37° C. with 93% N2, 4% CO2, and 3% O2 for 48 hours, after which 50 μL of [3H]-hypoxanthine (0.5 μCi) was added to each well. After 24 hours, plates were harvested with a Betaplate™ cell harvester (Wallac, Zurich Switzerland) which transferred the red blood cells onto a glass fiber filter and washed with distilled water. Dried filters were inserted into a plastic foil with 10 mL of scintillation fluid and counted in a Betaplate™ liquid scintillation counter (Wallac, Zurich Switzerland). Results were obtained as counts per minute (cpm) per well at each concentration.

Plasmodium berghei = assay: In vivo compound efficacy in Plasmodium berghei; conditions: mice; oral 50 mg/kg at 4, 24, 48 and 72 hours post-infection; day 4
Procedure: Mice were infected intravenously with parasitized red blood cells on day 0 (2×10^7 parasitized erythrocytes per mL). Experimental mice were treated at 4, 24, 48, and 72 hours post-infection with an oral dose of Example 7 at 50 mg/kg and were compared to an infected control group for the % reduction in parasitaemia on day 4 (96 hours post-infection) and for mean survival (monitored up to 30 days post-infection). A compound was considered curative if the animal survived to day 30 after infection with no detectable parasites.
The potent anti-malarial activity of Example 7, combined with its therapeutic window in vitro, led us to explore its activity in vivo using a murine model of malaria. Mice are infected with the murine specific Plasmodium, P. berghei, after which an antimalarial treatment regimen is given. Example 7 was given at 50 mg/kg at times 4, 24, 48, and 72 hours post-infection of mice already infected with P. berghei. The reduction in parasitemia, measured as the total blood load of the P. berghei parasite, was compared to an infected control group for the percent reduction of parasite on day 4 (96 hours post-infection). Example 7 was unexpectedly shown to be effective in reducing parasitemia by 99% compared to the infected control group after 4 days, making it an effective antimalarial in these preclinical models.

SMILES | accumulation of LC3-II [1] | LC3II accumulation [2] | antimalarial activity score [3] | IC50 ([3]; in vitro, infected human red blood cells) [nM] | reduction in parasitemia compared to the infected control group (Plasmodium berghei) [%] | IC50 [3] [nM]
COc1ccc2nc3cc(Cl)ccc3c(NCCCCN3CCN(C)CC3)c2c1 [Example 7, 6-Chloro-2-methoxy-N-(4-(4-methylpiperazin-1-yl)butyl)acridin-9-amine] | increased accumulation of LC3-II | greater increases in LC3II accumulation | good activity (good activity: IC50<50 ng/mL) | 4 | 99 | 
CN1CCN(CCNc2c3c(nc4cc(Cl)ccc24)CCCC3)CC1 [Example 27, 6-Chloro-N-(2-(4-methylpiperazin-1-yl)ethyl)-1,2,3,4-tetrahydroacridin-9-amine] | increased accumulation of LC3-II | greater increases in LC3II accumulation | low activity (low activity: IC50 50-1000 ng/mL) |  |  | 323
